# Marks after values point to notes of the source that are not given here.
# Experiments:
# [1] = Optical / fluorescence properties (absorption, emission, extinction coefficient, quantum yield, lifetime); assay type: physicochemical
# [2] = Water solubility and hydrophilic nature; assay type: physicochemical; details: for solubility in water (in words): water at pH=7, in carboxylate form
# [3] = asterisk: in water and PBS buffer
Structure (SMILES),Φ ([1]; in dichloromethane) [%],ε ([1]; in dichloromethane) [M⁻¹ cm⁻¹],λabs ([1]; in dichloromethane) [nm],λem ([1]; in dichloromethane) [nm],"Φ [1, 3]","ε [1, 3]","λabs [1, 3]","λem [1, 3]",water-soluble (in words) [2],also measured
COCCOCC#C[B-]1(C#CCOCCOC)n2c(C)cc(C)c2C(c2ccc(I)cc2)=C2C(C)=CC(C)=[N+]21 [Ia-1],65,90000,500,511,,,,,,
CCC1=C(C)C2=C(c3ccc(I)cc3)c3c(C)c(CC)c(C)n3[B-](C#CCOCCOC)(C#CCOCCOC)[N+]2=C1C [Ia-2],80,82000,522,488,,,,,,
COCCOCC#C[B-]1(C#CCOCCOC)n2c(/C=C/c3ccc(OCCOCCOC)cc3)cc(C)c2C(c2ccc(I)cc2)=C2C(C)=CC(/C=C/c3ccc(OCCOCCOC)cc3)=[N+]21 [Ia-3],75,126600,646,371,,,,,,
CCC1=C(C)C2=C(c3ccc(I)cc3)c3c(C)c(CC)c(C)n3[B-](C#CCN(C)C)(C#CCN(C)C)[N+]2=C1C [Ic-0],,,,,,,,,,"ζ (fluorescence lifetime) ([1]; CH2Cl2): 6.6 ns; Fluorescence λem ([1]; CH2Cl2, 6.1×10^−7 M): 533 nm; Fluorescence φ ([1]; CH2Cl2, 6.1×10^−7 M): 48%"
CCC1=C(C)C2=C(c3ccc(I)cc3)c3c(C)c(CC)c(C)n3[B-](C#CC[N+](C)(C)CCCS(=O)(=O)[O-])(C#CC[N+](C)(C)CCCS(=O)(=O)[O-])[N+]2=C1C [Ic-1],,,,,61* %,72000* M^−1 cm^−1,519* nm,530* nm,water-soluble,"Fluorescence λem ([1]; EtOH): 532 nm; Fluorescence φ ([1]; EtOH): 71%; fluorescence lifetime ([1]; H2O): 7.0 ns; Fluorescence λem ([1]; PBS buffer, 4.6×10^−7 M): 530 nm; Fluorescence φ ([1]; PBS buffer, 4.6×10^−7 M): 61%"
CCOC(=O)c1ccc(C2=C3C(C)=C(CC)C(C)=[N+]3[B-](C#CC[N+](C)(C)CCCS(=O)(=O)[O-])(C#CC[N+](C)(C)CCCS(=O)(=O)[O-])n3c(C)c(CC)c(C)c32)cc1 [Ic-2],,,,,,,,,,Fluorescence λem ([1]; EtOH): 533 nm; Fluorescence φ ([1]; EtOH): 45%
CCC1=C(C)C2=C(c3ccc(C#Cc4ccc5ccc6c(C(=O)OCCOCCOC)ccc7ccc4c5c76)cc3)c3c(C)c(CC)c(C)n3[B-](C#CC[N+](C)(C)CCCS(=O)(=O)[O-])(C#CC[N+](C)(C)CCCS(=O)(=O)[O-])[N+]2=C1C [Ic-3],,,,,,,,,,Fluorescence λem ([1]; EtOH): 533 nm; Fluorescence φ ([1]; EtOH): 39%

# The next lines start with results.
Φ ([1]; in dichloromethane) [%],ε ([1]; in dichloromethane) [M⁻¹ cm⁻¹],λabs ([1]; in dichloromethane) [nm],λem ([1]; in dichloromethane) [nm],"Φ [1, 3]","ε [1, 3]","λabs [1, 3]","λem [1, 3]",water-soluble (in words) [2],Structure (SMILES),also measured
85,80000,522,488,,,,,,CCOC(=O)c1ccc(C2=C3C(C)=C(CC)C(C)=[N+]3[B-](C#CCOCCOC)(C#CCOCCOC)n3c(C)c(CC)c(C)c32)cc1 [Ia-6],
50,78500,501,513,60* %,74000* M^−1 cm^−1,494* nm,506* nm,water-soluble,COCCOCC#C[B-]1(C#CCOCCOC)n2c(C)cc(C)c2C(c2ccc(C(=O)O)cc2)=C2C(C)=CC(C)=[N+]21 [Ia-9],solubility in water (in words) [2]: soluble in water
,,,,70* %,65000* M^−1 cm^−1,517* nm,530* nm,water-soluble,CCC1=C(C)C2=C(c3ccc(C(=O)O)cc3)c3c(C)c(CC)c(C)n3[B-](C#CCOCCOC)(C#CCOCCOC)[N+]2=C1C [Ia-10],solubility in water (in words) [2]: soluble in water
74,118000,647,662,,,,,,COCCOCC#C[B-]1(C#CCOCCOC)n2c(/C=C/c3ccc(OCCOCCOC)cc3)cc(C)c2C(c2ccc(C(=O)O)cc2)=C2C(C)=CC(/C=C/c3ccc(OCCOCCOC)cc3)=[N+]21 [Ia-11],
,,,,70* %,70000* M^−1 cm^−1,564* nm,578* nm,water-soluble,COCCOCC#C[B-]1(C#CCOCCOC)n2c(/C=C/c3ccc(OCCOCCOC)cc3)cc(C)c2C(c2ccc(C(=O)O)cc2)=C2C(C)=CC(C)=[N+]21 [Ia-12],solubility in water (in words) [2]: soluble in water
30,65000,500,513,,,,,,COCCOCC#C[B-]1(C#CCOCCOC)n2c(C)cc(C)c2C(c2ccc(C(=O)NCCN)cc2)=C2C(C)=CC(C)=[N+]21 [Ia-13],
80,84000,501,511,,,,,,CCOC(=O)CNC(=O)c1ccc(C2=C3C(C)=CC(C)=[N+]3[B-](C#CCOCCOC)(C#CCOCCOC)n3c(C)cc(C)c32)cc1 [Ia-14],
60,67000,501,511,50* %,62000* M^−1 cm^−1,495* nm,507* nm,water-soluble,COCCOCC#C[B-]1(C#CCOCCOC)n2c(C)cc(C)c2C(c2ccc(C(=O)NCC(=O)O)cc2)=C2C(C)=CC(C)=[N+]21 [Ia-15],
